Key:
Format in all cases: cell-based
[1] = biological target: T1, urate transporter 1 (URAT1) (Homo sapiens, UniProt Q96S37); experiment: [[…]-14C]uric acid uptake in URAT1-transfected HEK293/PDZK1 cells, mock-subtracted; Lineweaver-Burk kinetics
T1 construct: gene SLC22A12; human URAT1 cDNA in pCMV-SPORT6, transiently transfected into HEK293/PDZK1 cells
T1 sequence (Q96S37 1-553): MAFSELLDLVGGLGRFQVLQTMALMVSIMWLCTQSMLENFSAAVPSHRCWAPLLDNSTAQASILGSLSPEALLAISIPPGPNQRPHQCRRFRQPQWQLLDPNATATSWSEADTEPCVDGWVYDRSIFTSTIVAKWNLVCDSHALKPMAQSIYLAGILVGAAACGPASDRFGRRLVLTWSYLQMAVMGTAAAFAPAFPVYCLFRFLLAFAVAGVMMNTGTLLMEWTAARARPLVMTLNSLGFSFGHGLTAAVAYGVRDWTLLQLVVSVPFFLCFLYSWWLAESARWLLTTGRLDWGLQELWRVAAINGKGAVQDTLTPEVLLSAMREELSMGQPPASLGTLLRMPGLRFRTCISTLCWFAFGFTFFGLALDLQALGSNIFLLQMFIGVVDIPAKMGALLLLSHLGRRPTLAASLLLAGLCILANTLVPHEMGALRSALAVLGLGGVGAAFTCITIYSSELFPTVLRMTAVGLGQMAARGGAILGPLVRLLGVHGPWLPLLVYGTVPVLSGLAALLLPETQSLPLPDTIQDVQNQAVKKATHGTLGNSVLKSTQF

[2] = biological target: T1, urate transporter 1 (URAT1); experiment: [[…]-14C]uric acid uptake in URAT1-transfected HEK293/PDZK1 cells, single concentration […]; conditions: read-out: Urate Uptake (% of Control)
[3] = biological target: T1, urate transporter 1 (URAT1); experiment: radiolabelled uptake, […], Lineweaver-Burk plot

Compound `COc1ccc2ccc(=O)oc2c1CC=C(C)C` [compound 1, osthol] has an IC50 [1] of 78.8 µM.

`CC(C)=CCc1c(O)ccc2ccc(=O)oc12` [osthenol] showed a remaining activity at 100 µM [2] of 31 ± 4%.

With `O=c1[nH]c(=O)c2[nH]c(=O)[nH]c2[nH]1` [uric acid] the “radiolabelled uptake, 25-200 μM, Lineweaver-Burk plot” value [3] was “The uptakes of uric acid into the cells (V) were measured, and a Lineweaver–Burk plot was made”.
